From publication PMC6300978 (Chemico-biological interactions, 2015)
Values joined by “and” are separate entries in the source; they are usually repeats but may differ in a detail not shown here. Equal values may be shown once.

Assays:
UGT1A10 = target: T1, UGT1A10 (Homo sapiens, UniProt Q9HAW8); test: GA glucuronidation kinetics by recombinant UGT1A10; type: in vitro ADME
T1 sequence (Q9HAW8 26-530): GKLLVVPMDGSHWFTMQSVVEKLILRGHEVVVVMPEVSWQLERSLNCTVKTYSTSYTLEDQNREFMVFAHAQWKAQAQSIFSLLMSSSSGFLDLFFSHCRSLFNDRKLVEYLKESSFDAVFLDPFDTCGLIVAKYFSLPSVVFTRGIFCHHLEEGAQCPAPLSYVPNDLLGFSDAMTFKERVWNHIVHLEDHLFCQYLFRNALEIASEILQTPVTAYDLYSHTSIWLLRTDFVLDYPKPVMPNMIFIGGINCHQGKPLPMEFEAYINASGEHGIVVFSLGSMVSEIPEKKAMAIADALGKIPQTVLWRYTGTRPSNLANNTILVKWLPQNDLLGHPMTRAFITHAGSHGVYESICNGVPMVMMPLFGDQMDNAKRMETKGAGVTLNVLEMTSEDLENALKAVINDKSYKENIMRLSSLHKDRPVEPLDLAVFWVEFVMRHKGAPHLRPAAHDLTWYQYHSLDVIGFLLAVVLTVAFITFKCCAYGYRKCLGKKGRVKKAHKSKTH

[1] = rats; cited from earlier work
[2] = GA glucuronidation kinetics in rat liver microsomes; type: in vitro ADME, Sprague-Dawley rats; conditions: for microsomal CLint: rat liver microsomes
[3] = GA glucuronidation kinetics in beagle dog liver microsomes; type: in vitro ADME, beagle dogs; conditions: DLM; for microsomal CLint / Km at 30 min: beagle, dog; for microsomal CLint: dog liver microsomes; for Km at 30 min: liver microsomes, pH 7.4, Km (KS), Michaelis–Menten
recombinant human UGT1A9 = target: T2, recombinant human UGT1A9 (Homo sapiens, UniProt O60656); test: GA glucuronidation by recombinant UGT1A9; type: in vitro ADME; conditions: UGT1A9, whole range of substrate concentrations
T2 sequence (O60656 26-530): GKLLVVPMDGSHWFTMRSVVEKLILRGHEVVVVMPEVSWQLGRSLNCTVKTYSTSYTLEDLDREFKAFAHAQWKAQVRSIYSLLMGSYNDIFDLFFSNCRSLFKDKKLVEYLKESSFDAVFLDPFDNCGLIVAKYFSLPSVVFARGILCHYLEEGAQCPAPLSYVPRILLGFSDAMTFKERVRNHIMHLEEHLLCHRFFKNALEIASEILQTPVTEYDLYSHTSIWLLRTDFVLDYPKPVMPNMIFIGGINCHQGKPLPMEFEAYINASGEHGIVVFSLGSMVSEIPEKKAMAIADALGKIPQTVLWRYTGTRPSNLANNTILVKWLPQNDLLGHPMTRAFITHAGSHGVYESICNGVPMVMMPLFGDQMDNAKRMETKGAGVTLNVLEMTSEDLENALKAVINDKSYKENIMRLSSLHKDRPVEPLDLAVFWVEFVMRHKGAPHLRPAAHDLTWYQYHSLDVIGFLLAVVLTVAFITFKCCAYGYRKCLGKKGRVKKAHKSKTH

[4] = GA glucuronidation kinetics in cynomolgus monkey liver microsomes; type: in vitro ADME, cynomolgus monkeys; conditions: CyLM; for Km at 60 min: cynomolgus monkey, liver microsomes, pH 7.4, Km (KS), Michaelis–Menten
[5] = target: T3, recombinant human UGT2B15 (Homo sapiens, UniProt P54855); test: GA glucuronidation by recombinant UGT2B15; type: in vitro ADME; conditions: UGT2B15, whole range of substrate concentrations
T3 sequence (P54855 24-530): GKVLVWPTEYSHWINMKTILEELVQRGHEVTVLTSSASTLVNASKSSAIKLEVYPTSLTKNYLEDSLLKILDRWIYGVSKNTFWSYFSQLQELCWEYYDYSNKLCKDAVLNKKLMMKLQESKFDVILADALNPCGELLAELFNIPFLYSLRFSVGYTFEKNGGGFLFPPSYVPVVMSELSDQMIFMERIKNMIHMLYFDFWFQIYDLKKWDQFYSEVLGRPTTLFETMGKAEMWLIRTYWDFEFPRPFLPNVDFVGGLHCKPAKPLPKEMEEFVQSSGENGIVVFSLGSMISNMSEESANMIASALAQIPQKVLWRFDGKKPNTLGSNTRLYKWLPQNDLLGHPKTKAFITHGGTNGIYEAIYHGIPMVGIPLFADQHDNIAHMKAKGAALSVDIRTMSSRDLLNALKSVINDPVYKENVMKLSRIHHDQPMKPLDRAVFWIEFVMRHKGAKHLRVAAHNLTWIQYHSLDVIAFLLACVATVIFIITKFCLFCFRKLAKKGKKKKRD

[6] = GA glucuronidation kinetics in human liver microsomes; type: in vitro ADME; conditions: HLM; for microsomal CLint / Km at 60 min: both, human; for microsomal CLint: human liver microsomes; for Km at 60 min: liver microsomes, pH 7.4, Km (KS), Michaelis–Menten
CYP3A4 = conditions: earlier study; cited from earlier work
UGT1A3 = target: T4, UGT1A3 (Homo sapiens, UniProt P35503); test: GA glucuronidation kinetics by recombinant UGT1A3; type: in vitro ADME; conditions: recombinant human UGT1A3, pH 7.4
T4 sequence (P35503 29-534): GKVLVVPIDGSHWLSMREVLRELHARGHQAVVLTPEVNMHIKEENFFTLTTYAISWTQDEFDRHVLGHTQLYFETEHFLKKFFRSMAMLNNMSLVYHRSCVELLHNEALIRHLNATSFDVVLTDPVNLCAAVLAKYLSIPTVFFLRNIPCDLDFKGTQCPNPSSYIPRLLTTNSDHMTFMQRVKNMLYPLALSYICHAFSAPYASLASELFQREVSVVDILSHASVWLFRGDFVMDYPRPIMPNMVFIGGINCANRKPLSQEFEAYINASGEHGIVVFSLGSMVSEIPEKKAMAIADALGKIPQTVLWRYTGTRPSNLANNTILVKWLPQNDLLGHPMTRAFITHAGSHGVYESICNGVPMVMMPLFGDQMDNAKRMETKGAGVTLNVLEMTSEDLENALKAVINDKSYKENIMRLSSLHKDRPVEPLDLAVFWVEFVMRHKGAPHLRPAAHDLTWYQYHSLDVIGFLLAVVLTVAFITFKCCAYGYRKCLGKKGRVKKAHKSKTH

With `CC1(C)C=Cc2c(ccc3c2OC[C@@H](c2ccc(O)cc2O)C3)O1` [GA, glabridin] the KSI (UGT1A10; UGT1A10, M2 formation) was 36 ± 11 µM, the Vmax (UGT1A10; UGT1A10, M2 formation) was 0.50 ± 0.10 nmol/min/mg and 0.5 ± 0.1 nmol/min/mg and the microsomal CLint (UGT1A10; human, recombinant UGT1A10, pH 7.4) was 18 µL/min/mg. The oral availability [1] was “about 7.5 % of the oral dose”, the KSI ([2]; RLM, M2 formation) was 7.6 ± 3.0 µM and the Vmax ([2]; RLM, M2 formation) was 16 ± 5 nmol/min/mg. It also gave a Km at 20 min ([2]; male, Sprague-Dawley, rat, liver microsomes, pH 7.4) of 3.9 ± 1.9 µM, a microsomal CLint ([2]; male, Sprague-Dawley, rat, pH 7.4, Clint, RLM, M2 formation) of 4100 µL/min/mg and a microsomal CLint ([2]; male, Sprague-Dawley, rat, pH 7.4, Clint, RLM, M2 formation (text)) of 4000 µL/min/mg. For the same compound, the microsomal CLint ([2]; male, Sprague-Dawley, rat, pH 7.4, Cltotal, RLM) was 4100 µL/min/mg, the Vmax ([3]; M1 formation) was 2.4 ± 0.5 nmol/min/mg and the Vmax ([3]; M2 formation) was 6.2 ± 1.3 nmol/min/mg. It also gave a microsomal CLint ([3]; pH 7.4, Clint, M1 formation) of 71 µL/min/mg, a microsomal CLint ([3]; pH 7.4, Clint, M2 formation) of 214 µL/min/mg and a microsomal CLint ([3]; pH 7.4, Cltotal, M1 + M2) of 285 µL/min/mg. For the same compound, the Km at 30 min ([3]; M1 formation) was 34 ± 12 µM, the Km at 30 min ([3]; M2 formation) was 29 ± 12 µM and the GA glucuronidation activity (recombinant human UGT1A9) was less than 0.04 nmol/min/mg. It also gave a Vmax ([4]; M1 formation) of 0.051 ± 0.005 nmol/min/mg, a Vmax ([4]; M2 formation) of 0.51 ± 0.09 nmol/min/mg and a Km at 60 min ([4]; M1 formation) of 10 ± 3 µM. For the same compound, the Km at 60 min ([4]; M2 formation) was 35 ± 11 µM, the GA glucuronidation activity [5] was less than 0.04 nmol/min/mg and the Vmax ([6]; M1 formation) was 0.044 ± 0.005 nmol/min/mg. It also gave a Vmax ([6]; M2 formation) of 0.25 ± 0.03 nmol/min/mg, a microsomal CLint ([6]; pH 7.4, Clint, M1 formation, Vmax/Km) of 7 µL/min/mg and a microsomal CLint ([6]; pH 7.4, Clint, M2 formation, Vmax/Km) of 10 µL/min/mg. For the same compound, the microsomal CLint ([6]; pH 7.4, Cltotal, M1 + M2) was 17 µL/min/mg, the Km at 60 min ([6]; M1 formation) was 6.3 ± 3.6 µM and the Km at 60 min ([6]; M2 formation) was 24.2 ± 5.7 µM. The “inhibition of CYP3A4” value (CYP3A4) was “mechanism-based inhibitor” and the microsomal CLint (UGT1A3) was 29 µL/min/mg.
